The record followed here is ChEMBL document CHEMBL5625233, “Exploring positions 6 and 7 of a quinazoline-based scaffold leads to changes in selectivity and potency towards RIPK2/3 kinases” (Eur J Med Chem, 2023).

Structures are written as SMILES.

In series [1] the target is Tyrosine-protein kinase Fyn (Homo sapiens) (UniProt P06241). The experiment in a line: Inhibition of human FYN relative to control. As to conditions: concentration not given here.
Series [2] deals with T1, Receptor-interacting serine/threonine-protein kinase 1 (Homo sapiens, UniProt Q13546).
T1 sequence (Q13546 whole entry): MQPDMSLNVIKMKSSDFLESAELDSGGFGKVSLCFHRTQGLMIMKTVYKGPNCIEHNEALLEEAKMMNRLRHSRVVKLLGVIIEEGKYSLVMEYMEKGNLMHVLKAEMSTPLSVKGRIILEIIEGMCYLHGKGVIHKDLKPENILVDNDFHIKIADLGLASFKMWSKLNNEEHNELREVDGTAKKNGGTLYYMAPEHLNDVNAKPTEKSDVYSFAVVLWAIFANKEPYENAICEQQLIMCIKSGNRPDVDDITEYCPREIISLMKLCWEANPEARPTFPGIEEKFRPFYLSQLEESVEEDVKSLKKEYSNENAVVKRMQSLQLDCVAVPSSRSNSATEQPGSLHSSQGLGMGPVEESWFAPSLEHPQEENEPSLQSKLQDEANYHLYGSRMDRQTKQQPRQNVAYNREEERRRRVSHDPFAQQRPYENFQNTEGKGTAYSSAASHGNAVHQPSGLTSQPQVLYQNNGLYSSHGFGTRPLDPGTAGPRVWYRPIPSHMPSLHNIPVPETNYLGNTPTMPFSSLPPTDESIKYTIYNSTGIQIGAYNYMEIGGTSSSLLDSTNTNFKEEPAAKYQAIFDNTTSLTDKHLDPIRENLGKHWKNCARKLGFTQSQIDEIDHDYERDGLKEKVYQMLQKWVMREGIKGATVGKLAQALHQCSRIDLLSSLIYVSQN
Kind of series: Inhibition of N-terminal polyHis-tagged human RIPK1 (1 to 321 residues) expressed in Sf9 cells using MBP as substrate preincubated for 15 mins followed by ATP addition measured after 90 mins by ADP-Glo assay.

In series [3] the target is T2, Receptor-interacting serine/threonine-protein kinase 4 (Homo sapiens, UniProt P57078).
T2 sequence (P57078 whole entry): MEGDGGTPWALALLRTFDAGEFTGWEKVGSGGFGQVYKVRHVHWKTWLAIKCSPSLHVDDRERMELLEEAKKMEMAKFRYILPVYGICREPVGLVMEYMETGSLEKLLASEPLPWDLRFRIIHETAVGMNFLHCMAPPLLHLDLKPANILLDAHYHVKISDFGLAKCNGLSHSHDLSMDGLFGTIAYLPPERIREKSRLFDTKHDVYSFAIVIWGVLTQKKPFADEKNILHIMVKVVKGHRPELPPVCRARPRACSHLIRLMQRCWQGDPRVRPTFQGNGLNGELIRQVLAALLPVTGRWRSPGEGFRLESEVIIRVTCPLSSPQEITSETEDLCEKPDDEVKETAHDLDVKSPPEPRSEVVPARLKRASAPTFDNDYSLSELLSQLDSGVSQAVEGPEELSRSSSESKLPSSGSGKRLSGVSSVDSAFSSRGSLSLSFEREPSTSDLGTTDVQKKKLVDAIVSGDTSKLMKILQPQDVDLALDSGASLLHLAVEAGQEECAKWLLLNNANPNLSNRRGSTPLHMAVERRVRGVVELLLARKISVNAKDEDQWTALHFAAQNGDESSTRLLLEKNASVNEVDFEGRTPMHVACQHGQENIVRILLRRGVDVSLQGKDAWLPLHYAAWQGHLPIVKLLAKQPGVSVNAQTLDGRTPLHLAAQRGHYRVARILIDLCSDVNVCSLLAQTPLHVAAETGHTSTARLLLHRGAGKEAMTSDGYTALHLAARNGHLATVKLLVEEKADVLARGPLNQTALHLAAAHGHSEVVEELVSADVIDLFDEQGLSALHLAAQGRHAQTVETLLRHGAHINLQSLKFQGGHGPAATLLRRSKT
Kind of series: Inhibition of N-terminal polyHis-tagged human RIPK4 (1 to 321 residues) expressed in Sf9 cells using MBP as substrate preincubated for 15 mins followed by ATP addition measured after 90 mins by ADP-Glo assay. (ADP-Glo turns the ADP formed in a reaction into a luminescent signal.)

Series [4] deals with Receptor-interacting serine/threonine-protein kinase 3 (Homo sapiens, UniProt Q9Y572). Kind of series: Inhibition of N-terminal polyHis-tagged human RIPK3 (1 to 307 residues) expressed in Sf9 cells using MBP as substrate preincubated for 15 mins followed by ATP addition measured after 90 mins by ADP-Glo assay.
Receptor-interacting serine/threonine-protein kinase 3, sequence (Q9Y572 whole entry, the tested form may be a part): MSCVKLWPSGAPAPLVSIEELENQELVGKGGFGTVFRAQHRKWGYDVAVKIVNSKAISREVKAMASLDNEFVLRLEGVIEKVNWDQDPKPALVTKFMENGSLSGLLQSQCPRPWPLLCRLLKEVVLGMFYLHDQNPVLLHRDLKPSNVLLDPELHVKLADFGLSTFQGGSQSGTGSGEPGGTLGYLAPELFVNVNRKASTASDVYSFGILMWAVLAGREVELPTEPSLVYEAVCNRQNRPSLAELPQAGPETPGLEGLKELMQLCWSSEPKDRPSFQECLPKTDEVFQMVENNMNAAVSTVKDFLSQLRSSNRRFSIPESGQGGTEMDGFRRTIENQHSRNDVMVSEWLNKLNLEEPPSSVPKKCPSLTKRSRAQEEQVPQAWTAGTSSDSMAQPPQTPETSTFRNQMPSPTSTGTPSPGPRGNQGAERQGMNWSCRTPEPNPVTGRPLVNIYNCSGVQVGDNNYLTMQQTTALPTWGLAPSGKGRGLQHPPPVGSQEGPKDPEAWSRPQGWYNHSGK
For series [5], the target named is T3, Receptor-interacting serine/threonine-protein kinase 2 (Homo sapiens, UniProt O43353). Kind of series: Inhibition of N-terminal polyHis-tagged human RIPK2 (8 to 310 residues) expressed in Sf9 cells using MBP as substrate preincubated for 15 mins followed by ATP addition measured after 90 mins by ADP-Glo assay.
T3 sequence (O43353 whole entry, the tested form may be a part): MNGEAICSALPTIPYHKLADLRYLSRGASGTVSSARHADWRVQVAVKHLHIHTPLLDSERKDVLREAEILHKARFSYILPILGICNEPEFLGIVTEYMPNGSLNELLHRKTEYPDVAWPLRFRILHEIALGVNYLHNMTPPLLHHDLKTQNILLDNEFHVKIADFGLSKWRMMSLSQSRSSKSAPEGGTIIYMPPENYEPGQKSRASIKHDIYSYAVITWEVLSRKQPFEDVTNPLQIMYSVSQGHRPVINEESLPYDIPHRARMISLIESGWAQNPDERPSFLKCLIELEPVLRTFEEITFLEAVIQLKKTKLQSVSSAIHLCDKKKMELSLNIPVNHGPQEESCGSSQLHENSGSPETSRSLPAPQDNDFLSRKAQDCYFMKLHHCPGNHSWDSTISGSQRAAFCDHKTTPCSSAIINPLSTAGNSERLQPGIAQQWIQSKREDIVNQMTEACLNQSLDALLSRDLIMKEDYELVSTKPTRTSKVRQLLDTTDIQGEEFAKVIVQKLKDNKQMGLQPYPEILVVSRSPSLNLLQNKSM
Series [6] has as its target MAP kinase-interacting serine/threonine-protein kinase 2 (Homo sapiens) (UniProt Q9HBH9). Kind of series: Inhibition of human MNK2 relative to control. As to conditions: concentration not given here.
In series [7] the target is Serine/threonine-protein kinase 10 (Homo sapiens) (UniProt O94804). The experiment in a line: Inhibition of human LOK relative to control. To be noted: concentration not given here.
Serine/threonine-protein kinase 10 (Homo sapiens), sequence (O94804 whole entry, looked up): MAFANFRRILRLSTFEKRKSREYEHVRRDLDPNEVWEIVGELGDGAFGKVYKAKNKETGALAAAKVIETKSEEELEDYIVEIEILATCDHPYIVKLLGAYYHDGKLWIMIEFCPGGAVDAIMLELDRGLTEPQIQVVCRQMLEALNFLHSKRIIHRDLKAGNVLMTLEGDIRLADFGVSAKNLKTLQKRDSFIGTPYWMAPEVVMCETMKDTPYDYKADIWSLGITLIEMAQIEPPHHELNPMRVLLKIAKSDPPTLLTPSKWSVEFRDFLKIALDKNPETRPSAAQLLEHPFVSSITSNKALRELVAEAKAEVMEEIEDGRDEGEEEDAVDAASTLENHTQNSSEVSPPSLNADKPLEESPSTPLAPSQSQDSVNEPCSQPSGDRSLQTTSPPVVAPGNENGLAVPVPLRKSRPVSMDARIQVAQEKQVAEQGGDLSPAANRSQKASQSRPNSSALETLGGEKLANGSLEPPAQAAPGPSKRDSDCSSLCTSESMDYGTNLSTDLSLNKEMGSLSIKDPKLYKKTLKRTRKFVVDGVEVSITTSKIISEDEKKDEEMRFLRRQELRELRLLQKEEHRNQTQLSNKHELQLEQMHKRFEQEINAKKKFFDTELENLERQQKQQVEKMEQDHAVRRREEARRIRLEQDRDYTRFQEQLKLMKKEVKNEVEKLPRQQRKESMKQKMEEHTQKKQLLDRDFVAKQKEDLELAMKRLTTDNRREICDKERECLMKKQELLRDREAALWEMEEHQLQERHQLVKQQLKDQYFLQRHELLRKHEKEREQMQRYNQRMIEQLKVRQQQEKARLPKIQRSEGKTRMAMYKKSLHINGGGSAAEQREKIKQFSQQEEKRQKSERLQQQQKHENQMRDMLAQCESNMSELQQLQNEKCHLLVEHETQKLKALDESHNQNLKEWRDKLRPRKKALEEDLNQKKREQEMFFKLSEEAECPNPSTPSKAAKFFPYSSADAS
The target of series [8] is T3, Receptor-interacting serine/threonine-protein kinase 2. Kind of series: Inhibition of RIPK2-mediated NF-kappaB signalling in MDP-treated human THP-1 cells preincubated for 30 mins followed by MDP addition measured after 24 hrs by luminescence based assay. Format: cell-based.
Series [9] shares this target. The experiment in a line: Inhibition of RIPK2-mediated NF-kappaB signalling in C14-TriLAN-Gly-treated human THP-1 cells preincubated for 30 mins followed by C14-TriLAN-Gly addition measured after 24 hrs by luminescence based assay. Format: cell-based.
Series [10] deals with Epidermal growth factor receptor (Homo sapiens) (UniProt P00533). Kind of series: Inhibition of human EGFR relative to control. To be noted: concentration not given here.
The target of series [11] is Vascular endothelial growth factor receptor 2 (Homo sapiens) (UniProt P35968). The experiment in a line: Inhibition of human KDR relative to control. Details: concentration or dose not given beside the values. To be noted: concentration not given here.
Vascular endothelial growth factor receptor 2 (Homo sapiens), sequence (P35968 whole entry): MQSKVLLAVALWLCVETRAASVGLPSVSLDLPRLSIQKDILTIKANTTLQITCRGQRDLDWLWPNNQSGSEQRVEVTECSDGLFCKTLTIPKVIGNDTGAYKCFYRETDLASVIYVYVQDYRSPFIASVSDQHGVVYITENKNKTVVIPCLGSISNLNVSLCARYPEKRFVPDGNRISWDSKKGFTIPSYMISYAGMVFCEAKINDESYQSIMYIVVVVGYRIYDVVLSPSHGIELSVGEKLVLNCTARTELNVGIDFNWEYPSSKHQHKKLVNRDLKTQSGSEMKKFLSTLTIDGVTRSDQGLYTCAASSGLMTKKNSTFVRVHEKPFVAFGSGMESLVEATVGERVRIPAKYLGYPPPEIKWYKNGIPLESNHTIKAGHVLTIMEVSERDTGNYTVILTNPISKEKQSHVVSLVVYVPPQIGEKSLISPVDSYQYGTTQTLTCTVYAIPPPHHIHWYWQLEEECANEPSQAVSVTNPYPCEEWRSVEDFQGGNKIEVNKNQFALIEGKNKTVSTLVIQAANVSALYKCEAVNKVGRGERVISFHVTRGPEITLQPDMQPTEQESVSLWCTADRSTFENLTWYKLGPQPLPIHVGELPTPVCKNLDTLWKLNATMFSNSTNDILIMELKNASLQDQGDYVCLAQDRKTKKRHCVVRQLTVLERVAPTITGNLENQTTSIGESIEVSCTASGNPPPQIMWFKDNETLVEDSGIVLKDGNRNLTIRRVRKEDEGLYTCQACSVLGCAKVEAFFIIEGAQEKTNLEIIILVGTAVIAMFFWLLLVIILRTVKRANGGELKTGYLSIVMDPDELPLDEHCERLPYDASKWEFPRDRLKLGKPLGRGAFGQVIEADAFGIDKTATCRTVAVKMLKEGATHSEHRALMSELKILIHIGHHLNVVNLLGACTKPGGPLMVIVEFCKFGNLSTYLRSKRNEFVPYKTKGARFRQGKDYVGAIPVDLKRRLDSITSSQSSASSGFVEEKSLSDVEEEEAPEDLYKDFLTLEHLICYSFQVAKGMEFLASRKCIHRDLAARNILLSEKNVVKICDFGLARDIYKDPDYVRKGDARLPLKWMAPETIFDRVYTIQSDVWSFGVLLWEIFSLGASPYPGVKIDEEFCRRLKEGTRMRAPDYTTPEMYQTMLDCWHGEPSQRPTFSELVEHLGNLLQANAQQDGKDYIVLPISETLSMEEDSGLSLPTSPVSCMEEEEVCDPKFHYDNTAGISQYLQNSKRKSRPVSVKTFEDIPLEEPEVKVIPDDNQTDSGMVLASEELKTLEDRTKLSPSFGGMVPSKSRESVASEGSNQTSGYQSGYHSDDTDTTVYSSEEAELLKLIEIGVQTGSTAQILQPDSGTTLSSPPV
In series [12] the target is Tyrosine-protein kinase ABL1 (Homo sapiens) (UniProt P00519). The experiment in a line: Inhibition of human ABL relative to control. To be noted: concentration not given here.
Tyrosine-protein kinase ABL1 (Homo sapiens), sequence (P00519 whole entry): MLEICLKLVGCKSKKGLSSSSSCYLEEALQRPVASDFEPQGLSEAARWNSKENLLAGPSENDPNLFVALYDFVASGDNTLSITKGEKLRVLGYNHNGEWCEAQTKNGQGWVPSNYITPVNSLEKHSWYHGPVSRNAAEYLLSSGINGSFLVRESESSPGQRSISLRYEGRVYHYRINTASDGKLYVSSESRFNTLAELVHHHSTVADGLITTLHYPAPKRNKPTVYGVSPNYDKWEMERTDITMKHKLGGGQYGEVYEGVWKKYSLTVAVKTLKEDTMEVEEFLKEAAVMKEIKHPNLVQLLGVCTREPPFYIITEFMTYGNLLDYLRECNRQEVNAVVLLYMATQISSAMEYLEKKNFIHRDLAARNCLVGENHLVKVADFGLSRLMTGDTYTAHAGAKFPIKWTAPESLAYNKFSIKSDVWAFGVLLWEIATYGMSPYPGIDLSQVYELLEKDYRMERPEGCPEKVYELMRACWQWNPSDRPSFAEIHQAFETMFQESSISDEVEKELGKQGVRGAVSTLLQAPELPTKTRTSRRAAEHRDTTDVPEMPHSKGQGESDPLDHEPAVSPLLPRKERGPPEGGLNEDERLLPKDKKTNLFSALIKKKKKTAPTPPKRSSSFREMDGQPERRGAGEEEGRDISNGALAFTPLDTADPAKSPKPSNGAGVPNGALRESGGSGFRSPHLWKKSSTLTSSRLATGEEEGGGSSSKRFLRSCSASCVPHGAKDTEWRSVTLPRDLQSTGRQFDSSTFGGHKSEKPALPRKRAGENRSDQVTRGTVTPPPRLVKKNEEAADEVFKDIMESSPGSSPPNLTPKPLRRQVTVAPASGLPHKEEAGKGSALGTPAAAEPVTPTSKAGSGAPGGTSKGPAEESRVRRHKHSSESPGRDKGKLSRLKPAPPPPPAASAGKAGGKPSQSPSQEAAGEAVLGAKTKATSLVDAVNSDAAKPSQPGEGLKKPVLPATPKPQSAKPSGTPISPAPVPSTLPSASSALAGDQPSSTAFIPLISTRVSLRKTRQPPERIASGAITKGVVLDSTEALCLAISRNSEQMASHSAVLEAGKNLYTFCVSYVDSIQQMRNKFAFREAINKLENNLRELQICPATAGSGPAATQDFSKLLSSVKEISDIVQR
The nature of series [13]: Metabolic stability in mouse plasma assessed as compound remaining at 5 uM incubated for 120 mins by ECHO-MS analysis. To be noted: read-out: Stability. Format: ADME, cell-free.
A short description of series [14]: Metabolic stability in human liver microsomes assessed as compound remaining at 10 uM incubated for 45 mins by ECHO-MS analysis. Format: ADME, Microsome. As to conditions: microsomes, 0.75 h, 10 µM.
A short description of series [15]: Metabolic stability in mouse liver microsomes assessed as compound remaining at 10 uM incubated for 45 mins by ECHO-MS analysis. The format is ADME, Microsome. As to conditions: read-out: Stability. (Microsomes from liver hold many membrane-bound enzymes, among them those of drug oxidation.)
A short description of series [16]: Metabolic stability in human plasma assessed as compound remaining at 5 uM incubated for 120 mins by ECHO-MS analysis. Format: ADME, cell-free. As to conditions: read-out: Stability.
Series [17] concerns the target Tyrosine-protein kinase Lyn (Homo sapiens) (UniProt P07948). The experiment in a line: Inhibition of human LYN relative to control. As to conditions: concentration not given here.
For series [18], the system named is HT-29. The experiment in a line: Cytotoxicity against human HT-29 cells assessed as cell viability at 10 uM incubated for 24 hrs by Cell Titer Glo assay. The format is toxicity, cell-based. As to conditions: ht-29, 24 h. For orientation: Cellular ATP, detected with luciferase, serves as a proxy for viable cell number.

Tyrosine-protein kinase Fyn (Homo sapiens), sequence (P06241 2-537 limits assumed): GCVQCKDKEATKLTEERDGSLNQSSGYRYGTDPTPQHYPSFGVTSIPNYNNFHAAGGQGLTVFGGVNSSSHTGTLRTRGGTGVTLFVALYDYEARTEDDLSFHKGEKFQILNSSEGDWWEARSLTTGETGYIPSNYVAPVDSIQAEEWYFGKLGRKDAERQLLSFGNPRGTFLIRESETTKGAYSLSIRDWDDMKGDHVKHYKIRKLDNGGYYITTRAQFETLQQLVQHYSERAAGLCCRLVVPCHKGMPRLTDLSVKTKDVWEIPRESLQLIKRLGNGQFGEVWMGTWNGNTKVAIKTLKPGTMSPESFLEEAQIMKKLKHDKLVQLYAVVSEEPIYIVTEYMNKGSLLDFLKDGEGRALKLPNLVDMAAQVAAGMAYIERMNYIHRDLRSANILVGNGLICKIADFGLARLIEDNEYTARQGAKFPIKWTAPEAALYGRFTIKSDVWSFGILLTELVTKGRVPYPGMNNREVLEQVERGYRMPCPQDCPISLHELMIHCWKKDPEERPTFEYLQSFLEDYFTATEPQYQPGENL

The inhibition is the percentage by which the read-out fell short of the control. One may read the IC50 as the point on the concentration scale where inhibition reaches its midpoint. For the compound `c1csc(-c2ccc3ncnc(Nc4ccc5scnc5c4)c3c2)c1`, the inhibition amounted to 71% in series [1]; 54% in series [6]; 50% in series [7]; 54% in series [10]; 69% in [11]. Further, the IC50 in series [2] is greater than 50000 nM; in [3] it was greater than 50000 nM; in series [4], 398 nM; in [5], 4 nM; in [8] it was 120 nM; in series [9], 106 nM.

Consider `OCc1ccc(-c2cc3ncnc(Nc4ccc5scnc5c4)c3cc2-c2cccs2)o1`, for which the inhibition in series [1] was 94%; in series [12], 70%; in [7] it was 83%; in [10], 79%; in series [11], 94%; in series [17], 94%. Further, the IC50 was greater than 50000 nM in [2]; greater than 50000 nM in series [3]; 117 nM in [4]; 3 nM in series [5]; 27 nM in series [8]; 14 nM in series [9]. Further, the remaining at 2 h, 5 µM amounted to 107% in series [13] and 108% in series [16]. Besides, the Stability in series [14] was 124%. The remaining at 0.75 h, 10 µM in series [15] amounted to 114%.

Regarding `Cc1ccsc1-c1cc2c(Nc3ccc4scnc4c3)ncnc2cc1-c1cccc(CO)c1`, the Activity entry in [18] is “Toxic”. Moreover, the IC50 in [2] is greater than 50000 nM; in [3], greater than 50000 nM; in [4], 122 nM; in series [5], 4 nM; in series [8], 229 nM; in series [9], 225 nM. Moreover, the remaining at 2 h, 5 µM in series [13] stood at 108%; in series [16] it was 113%. Also, the Stability in [14] is on record as 123%. Also, the remaining at 0.75 h, 10 µM in [15] was 118%. In series [11], the inhibition is 85%.
